Reference: the supplement of paper PMC10331698
± gives the standard deviation of the averaged measurements.

What was measured:
[1] = compound: C=CC(=O)OCC(F)(F)C(F)(F)C(F)(F)COC(=O)C=C [1H,1H,5H,5H-Perfluoro-1,5-pentanediol diacrylate]; experiment: LOEC (log10 uM (lowest observed effect concentration))
Method: (§1)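 BioMAP Diversity Plus panel in human primary cell co-cultures, 4 concentrations in duplicate blinded samples. Responses are log10 fold change versus DMSO control, processed with tcpl v2.1.0. A hit is called when responses at any concentration exceed the cutoff (the larger of 3*bmad or log10(1.2)); the lowest observed effect concentration (modl_ga, log10 uM) is reported for hits.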

[2] = compound: O=C(O)C(F)(F)C(F)(F)C(F)(F)C(F)(F)C(F)(F)C(F)(F)C(F)(F)C(F)(F)C(F)(F)C(F)F [11-H-Perfluoroundecanoic acid]; experiment: as above
Method: as §1

Row | Test System | LOEC (log10 uM) [1] | LOEC (log10 uM) [2]
1 | 3C Eselectin down | 0.573 ± 0.39 | –
2 | 3C ICAM1 down | 1.3 | –
3 | 3C IL8 down | 1.3 | –
4 | 3C MIG down | 1.3 | –
5 | 3C TissueFactor down | 0.845 | –
6 | 3C VCAM1 down | 0.845 | –
7 | 4H MCP1 down | 1.3 | –
8 | 4H Pselectin down | 1.3 | –
9 | 4H uPAR down | 1.04 ± 1 | –
10 | BE3C Keratin818 down | – | 1.54 ± 0.34
11 | BF4T CD90 down | – | 1.54 ± 0.34
12 | BT Bcell Proliferation down | 0.845 | –
13 | BT PBMCCytotoxicity down | 0.573 ± 0.39 | –
14 | BT sIgG down | 0.845 | –
15 | BT xIL2 down | 0.845 | –
16 | BT xIL6 down | 0.573 ± 0.39 | –
17 | BT xIL17A down | 0.845 | –
18 | BT xIL17F down | 0.301 | –
19 | BT xTNFa down | 0.301 | –
20 | CASM3C HLADR down | 1.3 | –
21 | CASM3C IL6 down | 1.3 | –
22 | CASM3C IL8 down | 1.3 | –
23 | CASM3C LDLR down | 1.78 | –
24 | CASM3C MCP1 down | 1.78 | –
25 | CASM3C MCSF down | 1.3 | –
26 | CASM3C MIG down | 0.845 | –
27 | CASM3C PAI1 down | 1.78 | –

Row | Test System | LOEC (log10 uM) [1] | LOEC (log10 uM) [2]
28 | CASM3C Proliferation down | 0.573 ± 0.39 | –
29 | CASM3C SAA down | 1.78 | –
30 | CASM3C SRB down | 1.54 ± 0.34 | –
31 | CASM3C Thrombomodulin up | 1.3 | –
32 | CASM3C VCAM1 down | 0.845 | –
33 | CASM3C uPAR down | 1.78 | –
34 | IMphg IL8 down | 1.78 | –
35 | IMphg MIP1a down | 1.78 | –
36 | KF3CT ICAM1 down | 1.07 ± 0.32 | –
37 | KF3CT IL8 down | 1.3 | –
38 | KF3CT TIMP2 down | 1.78 | –
39 | LPS IL1a down | 1.3 | –
40 | LPS IL8 down | 1.3 | –
41 | LPS MCSF down | 1.3 | –
42 | LPS TNFa down | 1.3 | –
43 | LPS TissueFactor down | 1.07 ± 0.32 | –
44 | MyoF Decorin down | 1.3 | –
45 | MyoF IL8 down | 1.3 | –
46 | MyoF TIMP1 down | 1.3 | –
47 | MyoF bFGF down | 1.3 | –
48 | SAg MIG down | 1.3 | –
49 | SAg PBMCCytotoxicity down | 0.845 | –
50 | hDFCGF ICAM1 down | 0.301 | –
51 | hDFCGF IL8 down | 0.845 | –
52 | hDFCGF MMP1 down | 0.845 | –
53 | hDFCGF SRB down | 0.573 ± 0.39 | –
